{
  "source": "patent US20260284036A1",
  "about": "(priority 2023, published 2026)",
  "origin": "cited, not measured here",
  "conditions": "administered orally; significant first-pass metabolism",
  "data": [
    {"smiles": "C=CCN1CC[C@]23c4c5ccc(O)c4O[C@H]2C(=O)CC[C@@]3(O)[C@H]1C5", "note": "[naloxone]", "values": [
      {"measurement": "apparent bioavailability", "value": "1-2%"}
    ]}
  ]
}
